Patent publication US9840508B2, “N-acyl-(3-substituted)-(8-methyl)-5,6-dihydro-[1,2,4]triazolo[4,3-a] pyrazines as selective NK-3 receptor antagonists, pharmaceutical composition, methods for use in NK-3 receptor-mediated disorders” (EUROSCREEN SA, priority 2013, dated 2017)

What was measured:
circulating LH levels = test: Castrated male rat model, circulating luteinizing hormone (LH), oral dosing; format: in vivo; settings: castrated male SD rat; single oral dose less than or equal to 30 mg/kg; p<0.05
Method: In vivo Assay to Assess Compound Activity in Rat (Oral Dosing)
The effect of compounds of the invention to inhibit luteinizing hormone (LH) secretion is determined by the following biological studies.
Castrated Male Rat Model to Assess the Effect of Compound of Invention on Circulating Levels of Luteinizing Hormone (LH)
In humans and rodents, castration is well-precedented to permit heightened, persistent GnRH signaling and consequent elevation of circulating LH. Thus, a castrated rat model is used to provide a broad index for measurement of LH inhibition as a marker of test compound inhibition of the GnRH signaling pathway.
Castrated adult male Sprague-Dawley (SD) rats (150-175 g) were purchased from Janvier (St Berthevin, France). All animals were housed 2 per cage in a temperature-controlled room (22±2° C.) and 50±5% relative humidity with a 12 hour/12 hour light/dark cycles (lights off at 6 h00 pm). The animals were allowed 3 weeks of postoperative recovery prior to study. Animals were handled on a daily basis. Standard diet and tap water were provided ad libitum. Animal cage litters were changed once a week. […]
After basal sampling (TO) a single dose of compounds of the invention or vehicle was administrated orally to rats. […] Serum LH levels were determined using radioimmunoassay kit from RIAZEN—Rat LH, Zentech (Liège, Belgium). […]

human NK-3 receptor = human NK-3 receptor (Homo sapiens (Human), UniProt P29371); test: Aequorin functional assay with human NK-3 receptor (antagonist testing); format: cell-based; settings: CHO cells expressing human NK-3 receptor; agonist NKA at EC80 (3 nM); read-out: Functional assay: Aequorin assay with human NK-3 receptor hNK-3 - AEQ (antagonist IC50)
Method: Aequorin Assay with Human NK-3 Receptor
Changes in intracellular calcium levels are a recognized indicator of G protein-coupled receptor activity. The efficacy of compounds of the invention to inhibit NKA-mediated NK-3 receptor activation was assessed by an in vitro Aequorin functional assay. Chinese Hamster Ovary recombinant cells expressing the human NK-3 receptor and a construct that encodes the photoproteinapoaequorin were used for this assay. In the presence of the cofactor coelenterazine, apoaequorin emits a measurable luminescence that is proportional to the amount of intracellular (cytoplasmic) free calcium.
The antagonist activity of compounds of the invention is measured following pre-incubation (3 minutes) of the compound (at various concentrations) with the cells, followed by addition of the reference agonist (NKA) at a final concentration equivalent to the EC80 (3 nM) and recording of emitted light (FDSS 6000 Hamamatsu) over the subsequent 90-second period. The intensity of the emitted light is integrated using the reader software. Compound antagonist activity is measured based on the concentration-dependent inhibition of the luminescence response to the addition of Neurokinin A.
The IC50 values shown in Table 2 indicate that compounds of the invention are potent NK-3 antagonist compounds.

human NK-2 receptor = human NK-2 receptor (Homo sapiens (Human), UniProt P21452); test: Selectivity binding assay, human NK-2 ([125I]-Neurokinin A); settings: CHO cell membranes; 0.1 nM [125I]-Neurokinin A; read-out: hNK-2 (Ki)
Method: Selectivity of the compounds of the invention was determined over the other human NK receptors, namely NK-1 and NK-2 receptors.
The affinity of compounds of the invention for the NK-2 receptor was evaluated in CHO recombinant cells which express the human NK-2 receptor. Membrane suspensions were prepared from these cells. The following radioligand [^125I]-Neurokinin A (PerkinElmer Cat#NEX252) was used in this assay. Binding assays were performed in a 25 mM HEPES/1 mM CaCl2/5 mM MgCl2/0.5% BSA/10 μg/ml saponin, at pH 7.4. Binding assays consisted of 25 μl of membrane suspension (approximately 3.75 μg of protein/well in a 96 well plate), 50 μl of compound or reference ligand (Neurokinin A) at increasing concentrations (diluted in assay buffer) and 0.1 nM [^125I]-Neurokinin A. The plate was incubated 60 min at 25° C. in a water bath and then filtered over GF/C filters (Perkin Elmer, 6005174, presoaked in assay buffer without saponine for 2 h at room temperature) with a Filtration unit (Perkin Elmer). The radioactivity retained on the filters was measured by using the TopCount-NXT reader (Packard). Competition curves were obtained for compounds of the invention and the concentrations of compounds which displaced 50% of bound radioligand (IC50) were determined and then apparent inhibition constant Ki values were calculated by the following equation: Ki=IC50/(1+[L]/KD) where [L] is the concentration of free radioligand and KD is its dissociation constant at the receptor, derived from saturation binding experiments (Cheng and Prusoff, 1973).

human NK-2 receptor, sequence (P21452 whole entry): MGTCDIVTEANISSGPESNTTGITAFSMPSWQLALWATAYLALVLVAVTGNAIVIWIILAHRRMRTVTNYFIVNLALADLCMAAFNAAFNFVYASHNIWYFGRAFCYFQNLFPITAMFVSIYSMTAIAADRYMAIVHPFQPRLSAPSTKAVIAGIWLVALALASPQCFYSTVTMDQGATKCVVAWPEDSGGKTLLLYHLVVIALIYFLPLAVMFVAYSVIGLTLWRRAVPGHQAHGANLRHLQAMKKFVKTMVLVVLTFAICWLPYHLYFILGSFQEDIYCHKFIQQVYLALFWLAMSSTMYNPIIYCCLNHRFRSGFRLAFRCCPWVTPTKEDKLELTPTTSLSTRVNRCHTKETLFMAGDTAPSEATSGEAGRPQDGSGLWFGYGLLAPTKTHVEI
human NK-3 receptor, sequence (P29371 whole entry): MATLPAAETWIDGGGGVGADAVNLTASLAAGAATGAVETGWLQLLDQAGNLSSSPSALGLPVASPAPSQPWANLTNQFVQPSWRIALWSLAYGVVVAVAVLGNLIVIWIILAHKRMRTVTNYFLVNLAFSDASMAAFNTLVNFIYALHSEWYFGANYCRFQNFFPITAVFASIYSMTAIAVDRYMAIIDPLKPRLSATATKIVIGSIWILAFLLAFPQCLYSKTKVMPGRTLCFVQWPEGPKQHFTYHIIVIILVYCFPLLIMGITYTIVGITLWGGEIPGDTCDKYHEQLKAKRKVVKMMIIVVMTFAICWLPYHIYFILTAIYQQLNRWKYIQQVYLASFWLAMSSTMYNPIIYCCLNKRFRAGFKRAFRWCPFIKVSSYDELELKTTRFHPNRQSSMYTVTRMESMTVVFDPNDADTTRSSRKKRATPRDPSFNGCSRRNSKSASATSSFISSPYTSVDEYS

| IC50 (human NK-3 receptor) | Ki (human NK-2 receptor) | Structure (SMILES) | Suppression of circulating LH levels (circulating LH levels) |
| --- | --- | --- | --- |
| 0.06 µM | 52 µM | Cc1ccc(-c2nnc3n2CCN(C(=O)c2ccc(F)cc2)[C@@H]3C)o1 [Compound 1, (R)-(4-fluorophenyl)(8-methyl-3-(5-methylfuran-2-yl)-5,6-dihydro-[1,2,4]triazolo[4,3-a]pyrazin-7(8H)-yl)methanone] | significantly suppressed circulating LH levels |
| 0.02 µM | 6.6 µM | C[C@@H]1c2nnc(-c3csc(C(F)(F)F)n3)n2CCN1C(=O)c1ccc(F)cc1 [Compound 3, (R)-(4-fluorophenyl)(8-methyl-3-(2-(trifluoromethyl)thiazol-4-yl)-5,6-dihydro-[1,2,4]triazolo[4,3-a]pyrazin-7(8H)-yl)methanone] |  |
